Results published in patent US9663454B2, “3-aryl propiolonitrile compounds for thiol labeling” (Universite de Strasbourg, priority 2013, dated 2017).
Entries after “also recorded” stand apart in the source; their conditions may differ. Marks after values point to notes of the source that are not given here. Each block holds one molecule with its values, some of them ahead of it.

How the values were obtained:
[1] = Labeling of a cysteine derivative: conversion of arylpropiolonitriles 1-12 with AcCysNHBn, HPLC; details: 50 μM of each reagent, 25° C., PBS pH 7.6
Method: To a vial containing 985 μL of PBS (1×, pH 7.6), were subsequently added 5 μL of the stock solution of benzamide (10 mM in water), 5 μL of the stock solution of arylpropiolonitrile (1-12, 10 mM in DMSO) and 5 μL of stock solution of AcCysNHBn (7 m, 10 mM in DMSO). […] Areas under the peaks of the starting materials and hydrolysis products were normalized according to the area of the peak of the internal standard.
Obtained results are summed up in table 2 below, which presents the conversion of the compounds 1-12 in 30 minutes in presence of 7m at 50 μM concentration of each reagent and 25° C. The reaction is extremely sensitive to steric hindrances induced by substituents in ortho-position to propiolonitrile group (entries 1, 5, 8-9, 4) as well as to electronic effect of the substituent: −I and −M substituents increase (entries 10 and 12), while +M substituents decrease the reactivity of the compound (entries 3 and 7).

Trastuzumab [2] = experiment: Conjugation of Trastuzumab and TAMRA-SH via linker, SDS-PAGE and native ESI-MS
Method: To the solution of Trastuzumab (100 uL, 10 mg/mL in 50 mM borate buffer pH 8.5) was added 1.74 uL of the solution of 18 (10 mg/mL in DMSO). After incubation for 1 h at 25° C. was added 0.69 uL of TAMRA-SH (100 mM in DMSO). The mixture was incubated at 25° C. for 16 h and the conjugate was purified by size exclusion chromatography.
The comparison experiment was carried out using 4-(N-maleimidomethyl)cyclohexanecarboxylic acid N-hydroxysuccinimide ester (SMCC) instead of 18.

[3] = Stability of the addition product in different working solutions, HPLC; type: physicochemical; details: for Conversion of “addition product” in 1 h: 100 μM, 25° C.
Method: A 100 mM stock solution of the “addition product”
[drawing 113] was prepared in DMSO and stored at −20° C. 1 μL of the stock solution was added to 999 μL of working solutions to give 100 μM final concentration of substrate. Aliquots were analyzed at 0, 30 and 60 min. Areas under peak of starting material were normalized according to the area of the peak of the internal standard (benzamide). All measurements were carried at 25° C.

[4] = Hydrolytic stability in PBS, HPLC monitoring; type: physicochemical
Method: FIG. 3a-3b: HPLC monitoring of the hydrolysis of phenylmaleimide (2) in PBS (1×, pH 7.6) at 1 mM concentration at 25° C.; the peaks correspond, from the earliest to the latest, to
[drawing 5] conversion was monitored by disappearance of the starting material (a). Pseudo first order rate constant for the reaction was determined by plotting the ln([phenylmaleimide]) versus time and analyzing by linear regression. The constant corresponds to the absolute value of determined slope (b).
FIG. 4: HPLC monitoring of hydrolytic stability of N-(4-(cyanoethynyl)phenyl)acetamide (pNHAc-APN, 11) in PBS (1×, pH 7.6) at 1 mM concentration at 25° C. Conversion was monitored by disappearance of the starting material; the peaks correspond, from the earliest to the latest, to
To a vial containing 980 μL of PBS (1×, pH 7.6), were subsequently added 10 μL of a stock solution of benzamide and 10 μL of a stock solution of electrophile (phenylmaleimide 1 or
[drawing 112] 11) to give final concentration of 1 mM (both internal standard and electrophile). Aliquots of the reaction mixture (50 μL) were analyzed by HPLC for 5 hours of hydrolysis (injection every 30 min). Areas under the peaks of the starting materials and hydrolysis products were normalized according to the area of the peak of the internal standard.

[5] = Selectivity screening of electrophiles on amino acid benzylamides, HPLC; details: in 1 hour in PBS (1×, pH 7.6) in presence of the electrophile, 1 mM reagents
Method: (§1) Screening for selectivity was done on benzylamides of non-protected amino acids. 100 mM stock solutions of benzylamides of amino acids (in form of TFA salts) and electrophiles (phenylpropiolonitrile and phenylmaleimide) were prepared in DMSO and stored at −20° C. A 100 mM stock solution of benzamide (used as an internal standard) was prepared in distilled water and stocked at −20° C. Analyses of reaction mixtures were conducted with Shimadzu LC with SunFire™ C18 5 μM 4.6×150 mm column (Waters). HPLC parameters were as follows: flow rate 1 mL/min, gradient from 5 to 95% of mobile phase B from 0 to 20 min, followed by 5 min at 95% of mobile phase and post time of 5 min. Mobile phase A was 0.05% TFA in water (mQ) (v/v), and mobile phase B was acetonitrile (HPLC grade). Data were analyzed using Shimadzu analysis software. Signals were normalized according to the area of the peak of the internal standard (benzamide). Areas under the peaks of the amino acid benzylamides were used to calculate their conversion during reaction.
10 μL of the stock solution of amino acid benzamide and 2.5 μL of the stock solution of benzamide were added to a vial containing 977.5 μL of PBS (1×, pH 7.6). The solution was stirred and 10 μL of the stock solution of electrophile were added to give 1 mM final concentrations of reagents and 0.25 mM concentration of benzamide. Aliquots of the reaction mixture (50 μL) were analyzed by HPLC for 1 hour of hydrolysis (injections at 0, 30 and 60 min). Areas under the peaks of the starting materials and hydrolysis products were normalized according to the area of peak of the internal standard. In case of phenylpropiolonitrile, none of amino acid models gave more than 1.6% conversion (see table 3 below). […] Masses of corresponding adducts were detected by mass spectrometry (ESI-LCMS) in some cases (shown in bold, Table 4).

[6] = Selectivity screening of electrophiles, whole panel of amino acid models; details: 1 hour, PBS (1×, pH 7.6), 1 mM reagents
Method: as §1, with “Areas under the peaks of the amino acid benzylamides were used to calculate their conversion during reaction.” left out
10 μL of the stock solution of amino acid benzamide and 2.5 μL of the stock solution of benzamide were added to a vial containing 977.5 μL of PBS (1×, pH 7.6). […] Aliquots of the reaction mixture (50 μL) were analyzed by HPLC for 1 hour of hydrolysis (injections at 0, 30 and 60 min). […] Masses of corresponding adducts were detected by mass spectrometry (ESI-LCMS) in some cases (shown in bold, Table 4).

Trastuzumab [7] = experiment: Rebridging of antibody fragments, SDS-PAGE in reducing conditions; details: Trastuzumab reduced with 5 eq. TCEP, 15 eq. compound, 16 h at 25° C.
Method: To the solution of Trastuzumab (100 uL, 10 mg/mL in 50 mM PBS pH 7.4 with 10 mM of EDTA) was added the solution of TCEP (10 mM in water, 5 eq.). The mixture was incubated at 37° C. for 2 h and then the solution of 33 or 34 (10 mM in DMSO, 15 eq.) was added. The resulting solution was incubated for 16 h at 25° C. and then analyzed by SDS-PAGE in reducing conditions.

[8] = tested on: partially reduced Trastuzumab; experiment: Direct conjugation to partially reduced Trastuzumab, SDS-PAGE and ESI-MS
Method: To the solution of Trastuzumab (100 uL, 10 mg/mL in 50 mM PBS pH 7.4 with 10 mM of EDTA) was added the solution of TCEP (10 mM in water, 1.1 or 2.2 eq.). The mixture was incubated at 37° C. for 2 h and then the solution of 58 (8.25 μL, 10 mM in DMSO) was added. The mixture was incubated at 25° C. for 16 h and the conjugate was purified by size exclusion chromatography.

[9] = conversion of the compound in 30 minutes in presence of 7m
[10] = conversion in 60 minutes in presence of 7m

Structure (SMILES): COc1cccc(C#CC#N)c1 [Compound 2, 3-(3-Methoxyphenyl)propiolonitrile]
Conversion [1, 9]: 46.8%

Structure (SMILES): N#CC#Cc1ccccc1[N+](=O)[O-] [Compound 10, 3-(2-Nitrophenyl)propiolonitrile]
Conversion [1, 9]: 70.4%*

Structure (SMILES): O=C(ON1C(=O)CCC1=O)C1CCC(CN2C(=O)C=CC2=O)CC1 (stereo not drawn) [SMCC, 4-(N-maleimidomethyl)cyclohexanecarboxylic acid N-hydroxysuccinimide ester, reference compound]
population of conjugates (in words) (Trastuzumab [2]; native ESI-MS of the conjugate): complex mixture of undistinguishable species

Conversion of “addition product” in 1 h ([3]; 100 mM PhSH in PBS(7.4):DMSO = 80:20): 0.7%
Conversion of “addition product” in 1 h ([3]; 1M Glutathione reduced (GSH) in PBS (7.4)): 0.4%
Conversion of “addition product” in 1 h ([3]; 1M H2O2): 1.8%
Conversion of “addition product” in 1 h ([3]; 1M HCl (pH = 0)): 0.1%
Conversion of “addition product” in 1 h ([3]; 1M Imidazole in PBS (7.4)): 0.5%
Conversion of “addition product” in 1 h ([3]; 1M NaOH (pH = 14)): 3.4%
Structure (SMILES): N#CC=C(SCC(N)C(=O)NCc1ccccc1)c1ccccc1 (stereo not drawn) [addition product]
thiol exchange (in words) ([3]; 1 hour with an excess of phenylthiol or glutathione): no exchange product could be observed; also recorded: hardly any thiol exchange is observed
stability (in words) ([3]; wide range of conditions, pH from 0 to 14): stable in a wide range of pH (from 0 to 14); also recorded: stable and undergoes very little degradation in a wide range of conditions

hydrolyzed ([4]; after 1 h in buffer solution): approximately 25%
Structure (SMILES): COc1ccccc1C#CC#N [Compound 1, 3-(2-Methoxyphenyl)propiolonitrile]
Conversion [1, 9]: 10.1%
kobs (pseudo first order rate constant of hydrolysis) ([4]; PBS (1×, pH 7.6), 1 mM, 25° C.): 7e-05 s⁻¹

Structure (SMILES): N#CC#Cc1ccccc1 [phenylpropiolonitrile]
Conversion of AlaNHBn (7c) [5]: 0.1%
Conversion of ArgNHBn (7k) [5]: 0.4%
Conversion of AspNHBn (7l) [5]: 0.6%
Conversion of CysNHBn (7a) [5]: 98%
Conversion of GlnNHBn (7i) [5]: 0.1%
Conversion of GlyNHBn (7b) [5]: 0.2%
Conversion of HisNHBn (7h) [5]: 0.6%
Conversion of MetNHBn (7f) [5]: 0.1%
Conversion of SerNHBn (7e) [5]: 0.3%
Conversion of TrpNHBn (7j) [5]: 1.3%
Conversion of TyrNHBn (7g) [5]: 1.6%
Conversion of ValNHBn (7d) [5]: 0.7%
highest conversion among the amino acid models other than cysteine [6]: ≤ 1.6%

Structure (SMILES): CNC(=O)c1ccc(C#CC#N)cc1 [Compound 12, 4-(Cyanoethynyl)-N-methylbenzamide]
Conversion [1, 9]: 85.5%

Structure (SMILES): N#CC#Cc1ccccc1N [Compound 5, 3-(2-Aminophenyl)propiolonitrile]
Conversion [1, 9]: 10.8%

Structure (SMILES): Cc1cccc(C)c1C#CC#N [Compound 9, 3-(2,6-Dimethylphenyl)propiolonitrile]
Conversion [1, 10]: 2.3%**

Structure (SMILES): COc1cccc(OC)c1C#CC#N [Compound 4, 3-(2,6-Dimethoxyphenyl)propiolonitrile]
Conversion [1, 10]: 4.8%**

Structure (SMILES): N#CC#Cc1ccc(C(=O)Oc2c(F)c(F)c(S(=O)(=O)O)c(F)c2F)cc1 [Compound 18, Sodium 4-((4-(cyanoethynyl)benzoyl)oxy)-2,3,5,6-tetrafluorobenzenesulfonate]
level of conjugation (in words) (Trastuzumab [2]; SDS-PAGE, Trastuzumab + TAMRA-SH, versus SMCC): higher levels of conjugation comparing to SMCC
molecules of TAMRA conjugated per antibody, in average (Trastuzumab [2]; native ESI-MS of the conjugate): one
population of conjugates (in words) (Trastuzumab [2]; native ESI-MS of the conjugate): cleaner population of conjugates

Structure (SMILES): N#CC#Cc1ccccc1C#CC#N [Compound 33, 3,3′-(1,2-Phenylene)dipropiolonitrile]
bridging of antibody fragments (in words) (Trastuzumab [7]): successfully bridged

Structure (SMILES): Cc1ccccc1C#CC#N [Compound 8, 3-(o-Tolyl)propiolonitrile]
Conversion [1, 9]: 10.3%

Structure (SMILES): CC(=O)Nc1ccc(C#CC#N)cc1 [Compound 11, N-(4-(Cyanoethynyl)phenyl)acetamide]
Conversion [1, 9]: 52.3%
hydrolysis (in words) ([4]; PBS (1×, pH 7.6), 1 mM, 25° C., up to 5 hours of monitoring): no hydrolysis could be detected; also recorded: No detectable conversion; also recorded: no detectable change in concentration
hydrolysis (in words) ([4]; after a week at room temperature): no trace of hydrolyzed product could be detected

Structure (SMILES): CN(C)c1ccc2c(-c3cc(C(=O)NCc4cn(-c5ccc(C#CC#N)cc5)nn4)ccc3C(=O)[O-])c3ccc(=[N+](C)C)cc-3oc2c1 [Compound 58, 4-(((1-(4-(cyanoethynyl)phenyl)-1H-1,2,3-triazol-4-yl)methyl)carbamoyl)-2-(6-(dimethylamino)-3-(dimethyliminio)-3H-xanthen-9-yl)benzoate]
molecules conjugated per antibody, in average ([8]; ESI-MS, 2.2 eq. of TCEP): 4
attachment to the antibody (in words) ([8]; SDS-PAGE of the conjugates): covalently attached to the antibody

Structure (SMILES): N#CC#Cc1cccc(C#CC#N)c1 [Compound 34, 3,3′-(1,3-Phenylene)dipropiolonitrile]
bridging of antibody fragments (in words) (Trastuzumab [7]): successfully bridged

Structure (SMILES): N#CC#Cc1cccc(N)c1 [Compound 6, 3-(3-Aminophenyl)propiolonitrile]
Conversion [1, 9]: 42.0%

Structure (SMILES): COc1ccc(C#CC#N)cc1 [Compound 3, 3-(4-Methoxyphenyl)propiolonitrile]
Conversion [1, 9]: 14.6%

Structure (SMILES): N#CC#Cc1ccc(N)cc1 [Compound 7, 3-(4-Aminophenyl)propiolonitrile]
Conversion [1, 9]: 7.4%
